Data: patent publication US20130012473A1, “COMBINED USE OF PHOSPHOLIPID AND SULFATE GROUPS-CARRYING POLYSACCHARIDES FOR INHIBITING METASTATIC SPREAD” (KTB TUMORFORSCHUNGSGESELLSCHAFT MBH, priority 2010, published 2013)

Assays:
[1] = test system: VLA-4 adhesion of B16.F10 cells to VCAM-1; assay: Parallel plate flow chamber assay, cell adhesion to immobilized VCAM-1; type: cell-based, mouse
Protocol: Flow chamber assay: The interaction of B16.F10 cells with VCAM-1 Fc chimera under physiological flow conditions was analyzed on glass slides coated with VCAM-1 Fc chimera in a parallel plate flow chamber, as described in detail in our previous investigations (Fritzsche, J. et al., Thromb. Haemost. 100:1166-1175 (2008)).
Example 2: Impact of LysoPC treatment of B16.F10 cells on adhesion receptor activity in vitro. In order to investigate the concentration and time dependent effects of LysoPC on the receptor mediated cell binding ability, VLA-4 adhesion of B16.F10 cells to a support-fixed VCAM-1 layer was investigated (FIG. 2A). […] The LysoPC effects on adhesion became amplified by repeated LysoPC feeding.

[2] = test system: B16.F10 melanoma cells; assay: Removal of exogenous LysoPC from the medium (PC/LysoPC and free choline assays); type: cell-based, mouse; settings: in absence of the cells
Source text: Cell culture and LysoPC feeding: Mouse melanoma cell line B16.F10 (ATCC, CRL-6475) was passaged in vitro in DMEM as described before (Fritzsche, J. et al., Thromb. Haemost. 100:1166-1175 (2008)). Cells were routinely (monthly) tested to be negative of mycoplasms, their morphological appearance observed by microscopic means and examined for the expression of adhesion receptors and ligands by flow cytometry. LysoPC removal (1-Heptadecanoyl-2-hydroxy-sn-glycero-3-phosphocholine, (C17:0; HEP-LysoPC), Avanti Polar Lipids, Inc., or 1-Hexadecanoyl-sn-glycero-3-phosphocholine, (C16:0; HEX-LysoPC), Sigma, Taufkirchen, Germany was determined using 1×10^5 cells in 24-well tissue culture plates (Greiner BioOne, Frickenhausen, Germany). Non-cytotoxic LysoPC/BSA DMEM-solutions (FIG. 7 A) were prepared by adding 20-40 mg/ml bovine serum albumine (BSA, PAA Laboratories GmbH, Cölbe, Germany). Cell culture supernatants were collected from triplicates of LysoPC treated and untreated control wells. Cells were removed from tissue culture plates using trypsin/EDTA. […]
Determination of LysoPC concentration: LysoPC concentration was determined by an enzymatic PL (PC/LysoPC) assay containing phospholipase D and choline oxidase (mti diagnostics GmbH, Idstein, Germany). […]
B, C and D) Colorimetric assays for the quantification of LysoPC removal from the supernatant of B16.F10. […]

Question: What does the source list for `CCCCCCCCCCCCCCCCC(=O)OC[C@@H](O)COP(=O)([O-])OCC[N+](C)(C)C` [LysoPC]?
Answer: cell binding to support-fixed VCAM-1 ([1]; repeated addition of 300 μM LysoPC (13 days)): no effect in reducing the VLA-4 binding; cell binding to support-fixed VCAM-1 ([1]; single incubation with 300 μM LysoPC for 72 h): did not mediate significant binding decrease; cell binding to support-fixed VCAM-1 ([1]; single incubation with 450 μM LysoPC for 72 h before VLA-4 activation): significantly impaired the cell binding; cell binding to support-fixed VCAM-1 ([1]; treated six times with 450 μM LysoPC (13 days)): complete binding inhibition; LysoPC concentration in culture medium [2]: not changed in absence of the cells
